According to US20210128500A1, “Methods of Treating Conditions Associated with Leaky Gut Barrier” (The Regents of the University of California, priority 2017, published 2021):
Entries after “also recorded” stand apart in the source; their conditions may differ.

Legend:
[1] = system: Mouse intestine-derived EDMs; assay: Tight junction integrity by occludin / pS245GIV staining in EDMs exposed to LPS or H2O2 (FIG. 5); type: cell-based; settings: 1 μM Metformin
Experimental: Mouse intestine-derived EDMs were exposed to indicated amounts of LPS (top) or H2O2 (bottom) after treating them or not with 1 μM Metformin. Fixed monolayers were assessed for TJs by staining for occludin (a TJ marker; green grey scales). Activation of the AMPK→GIV stress polarity axis was monitored using pS245GIV (red grey scales). […] TEER measurements agree with IF findings (not shown).

AMPK→pS245GIV axis = assay: Activity of the AMPK→pS245GIV axis in human EDMs from non-diseased aged colons; type: cell-based
[2] = system: enteroid-derived monolayers (EDMs); assay: TEER across enteroid-derived monolayers challenged with E. coli K12 (FIG. 4B); type: cell-based, mouse and human; settings: Metformin pre-treatment 1 μM, 18 h; E. coli K12 challenge 8 h
Experimental: (§1) In FIG. 4B, TEER was measured across EDMs that were pre-treated or not with Metformin (1 μM, 18 h) prior to challenge with E. coli K12 strain for 8 h. Drop in TEER (Y axis) is plotted. A representative experiment is shown. […] Activation of the AMPK→GIV stress polarity axis was monitored using pS245GIV (red). […] Arrowheads=separation of TJs and loss of pS245GIV.
(§2) Detailed Methods: Isolation of enteroids and generation of enteroid-derived monolayers (EDM): Crypts are isolated from human colonic biopsies by digesting tissue with Collagenase type I (2 mg/ml; Invitrogen), filtered with a cell strainer and washed with medium (DMEM/F12 with HEPES, 10% FBS), as outlined before. The epithelial units are suspended in […] (BD basement membrane matrix). Cell-[…] suspension (15 μl) are placed at the center of the 24-well plate on ice and placed on the incubator upside-down for polymerization (as shown in FIG. 4A). After 10 min, 500 μl of 50% conditioned media (prepared from L-WRN cells with Wnt3a, R-spondin and Noggin) containing 10 μM Y27632 (ROCK inhibitor) and 10 μM SB431542 (an inhibitor for TGF-β type I receptor) is added to the suspension. The medium is changed every 2 days and the enteroids are expanded and frozen in liquid nitrogen. To prepare EDMs, single cells from enteroids in 5% conditioned media are added to diluted […] (1:30) as done before. […]

CLDN2 = CLDN2 biomarker in response to IBD-associated microbes (FIG. 15); type: cell-based
[3] = system: enteroid-derived monolayers (EDMs); assay: Tight junction integrity by occludin / pS245GIV staining in EDMs challenged with E. coli (FIG. 4C); type: cell-based, mouse and human; settings: Metformin pre-treatment 1 μM, 18 h; E. coli K12 8 h
Experimental: as §1, §2

high-fat fed mice = settings: cited from earlier work
[4] = system: AMPK 32-subunit-containing isoforms; assay: AMPK activation by A769662, 32-subunit-containing isoforms (FIG. 18); type: biochemical
DSS-induced colitis = DSS-induced colitis (FIGS. 20A-20E); type: in vivo; settings: activation of AMPK with A769662
AMPK α1β1γ1 = AMPK α1β1γ1 (Homo sapiens, UniProt Q13131+Q9Y478); assay: AMPK activation by A769662, α1β1γ1 isoform (fold activation, FIG. 18); type: biochemical; settings: estimated
AMPK α1β1γ1, sequence (Q13131 whole entry, canonical isoform): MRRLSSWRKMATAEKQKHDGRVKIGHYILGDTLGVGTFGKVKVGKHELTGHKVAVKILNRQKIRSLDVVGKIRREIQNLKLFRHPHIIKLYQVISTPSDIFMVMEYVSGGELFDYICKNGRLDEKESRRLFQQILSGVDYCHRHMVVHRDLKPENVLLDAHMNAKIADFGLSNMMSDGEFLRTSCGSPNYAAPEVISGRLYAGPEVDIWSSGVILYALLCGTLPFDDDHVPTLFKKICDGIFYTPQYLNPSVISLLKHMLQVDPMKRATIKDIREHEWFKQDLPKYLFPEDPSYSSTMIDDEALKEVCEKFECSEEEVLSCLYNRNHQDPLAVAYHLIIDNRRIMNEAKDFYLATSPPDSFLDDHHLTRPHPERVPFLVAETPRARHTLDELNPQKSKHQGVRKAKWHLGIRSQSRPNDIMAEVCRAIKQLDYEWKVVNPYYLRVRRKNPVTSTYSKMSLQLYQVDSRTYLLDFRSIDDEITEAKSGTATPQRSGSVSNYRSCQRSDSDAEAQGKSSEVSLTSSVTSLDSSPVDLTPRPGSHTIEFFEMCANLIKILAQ
AMPK α1β1γ1, sequence (Q9Y478 whole entry, canonical isoform): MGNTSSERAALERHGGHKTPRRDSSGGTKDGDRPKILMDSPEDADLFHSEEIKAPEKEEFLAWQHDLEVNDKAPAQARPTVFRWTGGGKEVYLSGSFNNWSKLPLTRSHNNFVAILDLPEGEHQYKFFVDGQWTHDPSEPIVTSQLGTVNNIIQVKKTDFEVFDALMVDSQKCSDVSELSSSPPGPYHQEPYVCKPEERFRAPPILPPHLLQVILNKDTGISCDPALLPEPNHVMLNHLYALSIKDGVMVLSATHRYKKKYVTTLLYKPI
AMPK α1β1γ1, sequence (P54619 whole entry partner, canonical isoform): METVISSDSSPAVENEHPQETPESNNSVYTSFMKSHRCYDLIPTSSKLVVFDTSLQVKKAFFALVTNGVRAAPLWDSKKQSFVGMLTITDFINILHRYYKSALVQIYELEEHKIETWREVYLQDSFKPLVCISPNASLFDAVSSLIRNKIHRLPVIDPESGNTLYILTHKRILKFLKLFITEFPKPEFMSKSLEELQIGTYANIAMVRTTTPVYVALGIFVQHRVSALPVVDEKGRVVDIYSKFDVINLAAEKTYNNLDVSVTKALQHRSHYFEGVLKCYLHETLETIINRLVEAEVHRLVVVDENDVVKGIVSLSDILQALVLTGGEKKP

| SMILES | TJ preservation (occludin pattern) ([1]; H2O2 stress) | TJ preservation (occludin pattern) ([1]; LPS stress) | activity of the AMPK→pS245GIV axis (AMPK→pS245GIV axis) | Drop in TEER [2] | increase in the CLDN2 biomarker (CLDN2) | TJ preservation (occludin pattern) [3] | endotoxemia (high-fat fed mice) | gut barrier integrity (high-fat fed mice) | insulin signaling (high-fat fed mice) | AC50 [4] [nM] | colon length (DSS-induced colitis) | healing of colonic mucosa (DSS-induced colitis) | AC50 (AMPK α1β1γ1) [nM] |
| --- | --- | --- | --- | --- | --- | --- | --- | --- | --- | --- | --- | --- | --- |
| CN(C)C(=N)N=C(N)N [Metformin] | TJs were better preserved; also recorded: protects TJs against stress-induced collapse | TJs were better preserved; also recorded: protects TJs against stress-induced collapse | can be increased | significantly reduced the drop in TEER | prevents the increase | TJs were better preserved; also recorded: protects TJs against stress-induced collapse | attenuates endotoxemia | enhances gut barrier integrity | enhances insulin signaling |  |  |  |  |
| N#Cc1c(O)c2c(-c3ccc(-c4ccccc4O)cc3)csc2[nH]c1=O [A769662] |  |  |  |  |  |  |  |  |  | > 40000 | preserves colon length | heals colonic mucosa | 72.2 |
